Experiments:
[1] = biological target: Nitric oxide synthase (endothelial, human recombinant) eNOS (Homo sapiens (Human), UniProt P29474); test: Human eNOS enzyme assay ([3H]-L-arginine to L-citrulline conversion); type: biochemical
Experimental: nNOS (Human), eNOS (Human) and iNOS (Human) Enzyme Assay
Primary stock solutions of test compounds at a concentration of 6 mM were prepared from the 2 to 5 mg powder. The primary stock solutions of each test compound were prepared freshly in distilled water on the day of study to obtain a final concentration of 6 mM. For determination of IC50 values, 12 test compound concentrations were prepared as 3-fold serial dilutions. Concentration range of test compound utilized for nNOS were 0.001 to 300 μM and for eNOS were 0.003 to 1000 μM. The vehicle of the test compound or inhibitor was used as blank control. For non-specific activity, 100 μM L-NMMA was used. Runs using the IC50 concentration of L-NAME were done in parallel as controls.
All incubations are performed in duplicate
The reaction mixture was prepared on ice by adding the following components with a micropipette to a polypropylene microcentrifuge tube: • 10 μL of test compound, inhibitor or control (vehicle or L-NMMA) solution; • 25 μL of Reaction Buffer {25 mM Tris-HCl, 0.6 μM BH4, 0.2 μM FMN, 0.2 μM FAD}; • 5 μL of 10 mM NADPH solution {1 mM} (freshly prepared in 10 mM Tris-HCl (pH 7.4); • 5 μL of 6 mM CaCl2 {600 W}; • 5 μL of 1 mM Calmodulin {100 W}; and • 5 μL of 0.02 μg/μL nNOS or 0.12 μg/μL eNOS.
The above reaction mixture was pre-incubated at room temperature for 15 mins.
The reaction was started by the addition of the substrate (in 5 μL containing 1 μCi of [^3H]-L-Arginine+2.5 μM of unlabeled L-Arginine) to the reaction mixture. Total reaction volume is 60 μL.
The reaction was mixed using a vortex mixer and incubate the above reaction mixture at 37° C. in an incubator for 30 minutes.
To stop the reaction, 400 μL of ice-cold Stop Buffer was added at the end of the incubation period.
The reaction was then mixed using a vortex mixer, and the reaction samples were transferred to spin cups, which were centrifuged using a microcentrifuge, at 13,000 rpm for 30 sec. at room temperature.
The spin cups were removed from the holder, 450 μL of eluate (containing the unbound L-citrulline) were transferred to scintillation vials. 3 mL of scintillation fluid were added and the radioactivity was quantified in a liquid scintillation counter.
Data was analyzed using a Sigmoidal dose-response (variable slope) curve to determine the IC50 value of the test compound. Y=Bottom+(Top−Bottom)/(1+10^((Log IC50−X)*Hill Slope))

[2] = biological target: Recombinant human inducible NOS (iNOS) (Homo sapiens (Human), UniProt P35228); test: Human iNOS enzyme assay (Protocol 1 or Protocol 2, radiometric); type: biochemical
Experimental: The human iNOS assay was carried by either one of the two protocols as described herein:
Recombinant human inducible NOS (iNOS) was produced in Baculovirus-infected Sf9 cells (ALEXIS). In a radiometric method, NO synthase activity was determined by measuring the conversion of [^3H]L-arginine to [^3H]L-citrulline. To measure iNOS, 10 μL of enzyme was added to 100 μL of 100 mM HEPES, pH=7.4, containing 1 mM CaCl2, 1 mM EDTA, 1 mM dithiothreitol, 1 μM FMN, 1 μM FAD, 10 μM tetrahydrobiopterin, 120 μM NADPH, and 100 nM CaM.
To measure enzyme inhibition, a 15 μL solution of a test substance was added to the enzyme assay solution, followed by a pre-incubation time of 15 min at RT. The reaction was initiated by addition of 20 μL L-arginine containing 0.25 μCi of [^3H] arginine/mL and 24 μM L-arginine. The total volume of the reaction mixture was 150 μL in every well. The reactions were carried out at 37° C. for 45 minutes, The reaction was stopped by adding 20 μL of ice-cold buffer containing 100 mM HEPES, 3 mM EGTA, 3 mM EDTA, pH=5.5. [^3H]L-citrulline was separated by DOWEX (ion-exchange resin DOWEX 50 W×8-400, SIGMA) and the DOWEX was removed by spinning at 12,000 g for 10 min in the centrifuge. An aliquot (70 μL) of the supernatant was added to 100 μL of scintillation fluid, and the samples were counted in a liquid scintillation counter (1450 Microbeta Jet, Wallac). Specific NOS activity was reported as the difference between the activity recovered from the test solution and that observed in a control sample containing 240 mM of the inhibitor L-NMMA. All assays were performed at least in duplicate. Standard deviations are 10% or less.
Primary stock solutions of each test compound were prepared in distilled water on the day of study to obtain a final concentration of 6 mM. For the determination of IC50 values, 11 test compound concentrations were prepared as 3-fold serial dilutions. Test compounds were tested in the iNOS assay at a concentration of 1000 μM to 0.0169 μM. The vehicle of the test compound or inhibitor, distilled water, was used as blank control. For non-specific activity, 100 μM L-NMMA was run in parallel as a control.
All incubations were performed in duplicate
The reaction mixture was prepared on ice by the addition of the following components to the appropriate well of a 1.0 mL 96-well polypropylene plate:
10 μL of test compound, reference inhibitor, or control (vehicle or L-NMMA) solution;
25 μL of Reaction Buffer (50 mM Tris-HCl, 6 μM BH4, 2 μM FMN, 2 μM FAD);
5 μL of 10 mM NADPH solution;
5 μL of 1 μM Calmodulin; and
The reaction mixture was pre-incubated at room temperature for 15 minutes. Following this pre-incubation, the reaction was initiated by the addition of 5 μL of the substrate L-arginine (1 μCi of [^3H]-L-Arginine+30 μM of unlabeled L-Arginine) to the reaction mixture. The total reaction volume was 60 μL. The assay plate containing the reaction mixtures was sealed and incubated at 37° C. for 30 minutes. At the end of this incubation period, 400 μL of ice-cold Stop Buffer (the EDTA in the Stop Buffer chelates all of the available calcium) was added to each well to stop the reaction. 100 μL of equilibrated resin pH 5.5 was added to each of the assay wells. The reaction samples were vortexed and transferred to spin cups, after-which they were centrifuged at 13,000 rpm for 30 sec. The spin cups were removed from the holder and […] (containing the unbound L-citrulline) were added to the appropriate wells of a 96-well liquid scintillation plate. 175 μL of scintillation fluid were also added to each well. The plate was sealed, and radioactivity was quantitated using a Microbeta liquid scintillation counter.
Data were analyzed using a Sigmoidal dose-response (variable slope) curve to determine the IC50 value of the test compound. Y=Bottom+(Top−Bottom)/(1+10^((Log IC50−X)*Hill Slope))

CNCCN1CCSc2cc(NC(=N)c3cccs3)ccc21 [Compound 8, N-(4-(2-(methylamino)ethyl)-3,4-dihydro-2H-benzo[b][1,4]thiazin-7-yl)thiophene-2-carboximidamide]
IC50 [1]: 33.5 µM
IC50 [2]: 70.6 µM
